From PMC3646166, “Comparison of Aqueous and 1-Octanol Solubility as well as Liquid–Liquid Distribution of Acyclovir Derivatives and Their Complexes with Hydroxypropyl-β-Cyclodextrin” (Journal of Solution Chemistry, 2013)
Values after ≈ are worked out from the molar mass of the structure shown. Read-outs that look alike come from different tables or passages of the source.

Experiments:
[1] = Solubility in water or 1-octanol (saturated solutions, UV-Vis); format: physicochemical; conditions: for solubility: thermodynamic from solid, water
Experimental: The sample of substance examined (10 mg or 80 mg for 6-Me-TACV) was placed in a glass ampoule and double-distilled, deionized water (Millipore, Elix 5 purifier), or pure anhydrous 1-octanol (Sigma 99 %) was added. To attain thermodynamic equilibrium, the solute and the solvent were mixed continuously for a minimum of 4 days at a speed of 25 rpm. After the experiment was completed, the sample was centrifuged at 40,000 rpm for 40 min at 25 ± 0.1 °C, the supernatant liquid was collected, diluted, and its concentration determined with a UV–Vis (Varian Carry IE) spectrophotometer. The experiments were repeated at least three times for each solubility.

[2] = Extraction experiments, 1-octanol-water partition coefficient; format: physicochemical; conditions: 25 °C, read-out: Partition coefficient 1-octanol–water, P oc/w (converted)
Experimental: The equipment described above was also used for the determination of the 1-octanol-water partition coefficients. […] The partition coefficient was evaluated as:1 Poc/w=Coc/Cw where C oc and C w are the molar concentrations of the solute in the 1-octanol and water phases, respectively. The correctness of the P oc/w value of each compound was verified by checking the mass balance of the starting amount of the substance and the total amount of the substance partitioned between the two phases.

[3] = Solubility in buffered cyclodextrin solutions (excess method of Higuchi and Connors); format: physicochemical; set-up: Stability constant K s of HP-β-CD complex: unit not given here
Experimental: Solubilities of the studied compounds was ensured according to the excess method of Higuchi and Connors. […] An excess amount of compounds 4-9 and 11-12 was added to 1.5 mL of aqueous phosphate buffer (concentration of buffer was equal 0.067 mol·dm^-3) solutions, (pH = 5.5 or 7.0) containing various concentration of HP-β-CD. The cyclodextrin concentration changed in the range of 10^-3 to 2 × 10^-2 mol·dm^-3. The suspensions were shaken in screw-capped plastic vials in a water bath thermostat with the volume of 60 dm^3 (home made apparatus by IChF PAN) at 25 and 37 °C. After 7 days equilibrium was reached and then the suspensions were centrifuged and the absorbance of the studied compounds was measured by UV-Vis spectrophotometry using a Shimadzu UV 2401 PC Spectrometer equipped with a thermostatically controlled cell compartment. During the measurement of absorbance, a buffered-solution of HP-β-CD, of the same concentration as in the studied solution, was always put as the reference. The average values of at least three independent determinations of the absorbance were used for calculation of the concentrations of the particular acyclovir derivatives. […] The main reason for the low solubility of tricyclic acyclovir derivatives with aromatic groups in water is the high hydrophobicity of these substituents. Use of cyclodextrins, which can include aromatic groups into their cavity, may enhance the aqueous solubility of such compounds. For this purpose we used several cyclodextrins and hydroxypropyl-β-cyclodextrin was chosen as being more efficient for complexating the tricyclic acyclovir derivatives. The investigations were performed, for chosen compounds, in various cyclodextrin HP-β-CD, buffered solutions (pH = 5.5 and 7.0) at 25 and 37 °C. […] Values of the correlation parameters a and b for tricyclic acyclovir derivatives complexed by cyclodextrin are presented in Table 3. […] The stability constants of the inclusion complexes between HP-β-CD and acyclovir derivatives have been calculated according to the Higuchi-Connors method using:3 K=b/C0(1-b) where C 0 is the solubility of the sample in solutions without cyclodextrin, obtained by determination of saturated solution concentration of acyclovir derivative solutions. […] These two values can differ, but in our study are very close to each other.

[4] = set-up: method as in earlier work; conditions: human body ref 1; cited from earlier work
[5] = 25 °C (Table 1), read-out: Solubility in water, C w
[6] = water saturated with 1-octanol, 25 °C, read-out: Solubility in water saturated with 1-octanol, C woc
[7] = 35 °C, read-out: Aqueous solubility, C w
[8] = 45 °C, read-out: Aqueous solubility, C w
[9] = buffered HP-β-CD solutions, pH = 5.5, 25 °C
[10] = buffered HP-β-CD solutions, pH = 5.5, 37 °C
[11] = buffered HP-β-CD solutions, pH = 7.0, 25 °C
[12] = buffered HP-β-CD solutions, pH = 7.0, 37 °C

Row | Compound | Solubility ratio in 1-octanol and water, C oc/C w ([1]; 25 °C) | Solubility ratio in 1-octanol saturated with water and water saturated with 1-octanol, C ocw/C woc ([1]; 25 °C) | solubility [1, 5] [µM] | solubility [1, 6] [µM] | solubility [1, 7] [µM] | solubility [1, 8] [µM] | logP at 2 days [2] | Correlation parameter a (Eq. 2, Cs = a + b·CCD) [3, 9] | Correlation parameter b (Eq. 2, Cs = a + b·CCD) [3, 9] | Correlation parameter a (Eq. 2, Cs = a + b·CCD) [3, 10] | Correlation parameter b (Eq. 2, Cs = a + b·CCD) [3, 10] | Correlation parameter a (Eq. 2, Cs = a + b·CCD) [3, 11] | Correlation parameter b (Eq. 2, Cs = a + b·CCD) [3, 11] | Correlation parameter a (Eq. 2, Cs = a + b·CCD) [3, 12] | Correlation parameter b (Eq. 2, Cs = a + b·CCD) [3, 12] | Stability constant K s of HP-β-CD complex ([3]; pH = 5.5, 25 °C) | Stability constant K s of HP-β-CD complex ([3]; pH = 5.5, 37 °C) | Stability constant K s of HP-β-CD complex ([3]; pH = 7, 25 °C) | Stability constant K s of HP-β-CD complex ([3]; pH = 7, 37 °C) | other results
1 | CC(C)(C)c1cn2c(=O)c3ncn(COCCO)c3nc2[nH]1 [Compound 7] | 5.16 | 2.62 | 3080 (≈ 940 µg/mL) | 3780 (≈ 1150 µg/mL) | 20400 (≈ 6230 µg/mL) | 31900 (≈ 9740 µg/mL) | 0.616 | – | – | – | – | – | – | – | – | – | – | – | – | Type of solubility diagram (solubility versus cyclodextrin concentration) ([3]; buffered HP-β-CD solutions): An type of solubility diagram
2 | O=c1c2ncn(COCCO)c2nc2[nH]c(-c3ccccc3)cn12 [Compound 8] | 7.48 | 4.76 | 238 (≈ 77.4 µg/mL) | 334 (≈ 109 µg/mL) | 517 (≈ 168 µg/mL) | 728 (≈ 237 µg/mL) | 0.545 | 1.86 × 10^−4 | 2.22 × 10^−2 | 3.27 × 10^−4 | 3.57 × 10^−2 | 2.50 × 10^−4 | 2.60 × 10^−2 | 3.36 × 10^−4 | 3.60 × 10^−2 | 122 (±2) dm·mol^−1 | 113 (±10) | 107 (±8) | 105 (±6) dm·mol^−1 | –
3 | O=c1c2ncn(COCCO)c2nc2[nH]c(-c3ccc(-c4ccccc4)cc3)cn12 [Compound 9] | 8.90 | 3.10 | 229 (≈ 91.9 µg/mL) | 583 (≈ 234 µg/mL) | 554 (≈ 222 µg/mL) | 658 (≈ 264 µg/mL) | 0.491 | 2.18 × 10^−4 | 2.12 × 10^−2 | 5.03 × 10^−4 | 2.98 × 10^−2 | 2.65 × 10^−4 | 2.84 × 10^−2 | 5.95 × 10^−4 | – | 100 (±8) | 61 (±5) | 110 (±6) dm·mol^−1 | 68 (±4) | –
4 | O=c1c2ncn(COCCO)c2nc2[nH]c(-c3ccc(Br)cc3)cn12 [Compound 10] | 2.14 | 1.65 | 364 (≈ 147 µg/mL) | 412 (≈ 167 µg/mL) | 898 (≈ 363 µg/mL) | 1280 (≈ 517 µg/mL) | 0.549 | – | – | – | – | – | – | – | – | – | – | – | – | –
5 | O=c1c2ncn(COCCO)c2nc2[nH]c(-c3ccc4ccccc4c3)cn12 [Compound 12] | 4.37 | 3.58 | 166 (≈ 62.3 µg/mL) | 191 (≈ 71.7 µg/mL) | 256 (≈ 96.1 µg/mL) | 265 (≈ 99.5 µg/mL) | 0.549 | 2.99 × 10^−5 | 0.88 × 10^−2 | 3.37 × 10^−5 | 0.93 × 10^−2 | 3.05 × 10^−5 | 0.94 × 10^−2 | 4.29 × 10^−5 | 1.29 × 10^−2 | 297 (±7) | 279 (±9) | 311 (±9) | 305 (±9) | –
6 | CC(C)[C@H](N)C(=O)OCCOCn1cnc2c(=O)[nH]c(N)nc21 [valacyclovir] | – | – | – | – | – | – | – | – | – | – | – | – | – | – | – | – | – | – | – | Absorption relative to application of acyclovir [4]: four times higher
